Measured values published in BindingDB's records for PubMed 33314936 (n/a, 2020).
pIC50: −log10 of the molar value.

Assay: Agonist activity at human PGI2 receptor assessed as inhibition of ADP-induced platelet aggregation

pIC50: 5.19
SMILES: CC(C)N(CCCCOCC(=O)NS(C)(=O)=O)c1cnc(-c2ccccc2)c(-c2ccccc2)n1 [ACT-293987]
